Test: Adriamycin-induced focal segmental glomerulosclerosis (FSGS) in mice: urine protein, serum creatinine, BUN
Type: in vivo
Conditions: 8-week-old BALB/c mice, adriamycin 0.1 mg/per 10 g body weight intravenously, day 15
Experimental: 8-week-old BALB/c mice were injected with adriamycin (0.1 mg/per 10 g body weight) intravenously to induce Focal Segmental Glomerulosclerosis (FSGS). Blood, urine, and kidney tissue samples were collected at days 0, 7, 15, and 20 after injection. More specifically, the blood samples were collected from the retro-orbital venous plexus and the urine samples were collected by gentle abdominal massage. The samples were centrifuged to remove insoluble substances and then stored in liquid nitrogen. When urine proteins are to be measured, the corresponding samples were collected on parafilms. The modified Bradford protein assay was performed to examine urine protein concentration, the picric acid colorimetric kit (Sigma 555-1) was used for detecting creatinine, and an urease assay kit provided by Sigma (640-5) was used for determining the level of blood urea nitrogen (BUN).

- serum creatinine level (control mice 0.48±0.03): 2.02 ± 0.17 mg/dL
- urine protein level (control mice 0.59±0.082): 16.84 ± 3.13 mg/mL
- BUN (blood urea nitrogen) level (control mice 21.85±1.99): 71.42 ± 8.09 mg/dL
SMILES: COc1cccc2c1C(=O)c1c(O)c3c(c(O)c1C2=O)C[C@@](O)(C(=O)CO)C[C@@H]3O[C@H]1C[C@H](N)[C@H](O)[C@H](C)O1 [adriamycin]

Source: patent publication US8329651B2, “Method for renal disease diagnosis and prognosis using annexin A1 and Rab23 as markers” (National Defense Medical Center, priority 2009, dated 2012)
